Data on one molecule can be found in patent US20110046130A1, “TETRAHYDRONAPHTHYRIDINES AND AZA DERIVATIVES THEREOF AS HISTAMINE H3 RECEPTOR ANTAGONISTS” (Evotec AG, priority 2008, published 2011).

The assay has as its target T1, human H3 receptors (Homo sapiens, UniProt Q9Y5N1).
T1 construct: host or cells: CHO-K1
Put plainly: cAMP quantification protocol for human H3 receptor testing. Type of assay: cell-based. The following applies: inhibition of agonist-induced (100 nM histamine, 10 μM forskolin) decrease of intracellular cAMP; CHO-K1 cell line expressing human H3 receptors; read-out: Potency range (IC50 values). How it is done:
CHO-K1 cell line expressing human H3 receptors were purchased from Euroscreen (Gosselies, Belgium, Cat. no.: ES-392-C)
Human H3 receptor-expressing cell-lines were grown in Ham's F12 [Sigma, Cat. no. N6658], supplemented with 10% FBS [Sigma, Cat. no. F9665], 400 μg/ml G418 [Sigma, Cat. no. N1876] and 250 μg/ml Zeocin [Invitrogen, Cat. no. 46-0509]) according to the protocol provided by Euroscreen.
cAMP Quantification Protocol for Human H3 Receptor Testing
The assay measures the ability of test compounds to inhibit Histamine receptor agonist-induced decrease of intracellular free cAMP (receptor is Gi coupled).
Specifically, a cAMP quantification assay system from DiscoveRx (cAMP XS+; Cat. no. 90-0075) was used.
For the cAMP assay, confluent cells were detached from the culture vessels with 1× trypsin-EDTA solution (Sigma), and seeded into 384-well Costar plates (white, clear bottom, Cat. no. 3707) at a density of 10,000 cells per well. Cells were seeded in a volume of 50 μl in medium without antibiotics and incubated overnight in a humidified atmosphere with 5% CO2 at 37° C. The cAMP assay was performed according to the protocol provided by DiscoveRx.
The cell culture medium was removed and the cells washed once with PBS (50 μl per well). The plates were emptied by inversion and 7.5 μl/well of compound in PBS (containing 1 mM IBMX and 0.03% BSA) were added and incubated for 30 min at 37° C.
Subsequent 7.5 μl/well specific agonist solution was added and the plates for another 30 min incubated at 37° C.
The following agonist solution is used:
100 nM histamine, 10 μM forskolin in PBS (containing 1 mM IBMX and 0.03% BSA)
After the incubation with the agonist, 5 μl/well cAMP XS antibody solution was added followed by 20 μl/well Gal/EII/Lysis(1:5:19)+ED (1:1). The plates were incubated for one hour at room temperature and afterwards 20 μl/well EA reagent was added. The luminescence was developed for approximately three hours at room temperature and the plates were read out using a ‘BMG Novostar’ plate reader.
Test compounds were assayed at 8 concentrations in triplicate. Serial 10-fold dilutions in 100% DMSO were made at a 100-times higher concentration than the final concentration and then diluted with a 2 step protocol in assay buffer to reach the required assay concentrations and 1% DMSO.

T1 sequence (Q9Y5N1 whole entry): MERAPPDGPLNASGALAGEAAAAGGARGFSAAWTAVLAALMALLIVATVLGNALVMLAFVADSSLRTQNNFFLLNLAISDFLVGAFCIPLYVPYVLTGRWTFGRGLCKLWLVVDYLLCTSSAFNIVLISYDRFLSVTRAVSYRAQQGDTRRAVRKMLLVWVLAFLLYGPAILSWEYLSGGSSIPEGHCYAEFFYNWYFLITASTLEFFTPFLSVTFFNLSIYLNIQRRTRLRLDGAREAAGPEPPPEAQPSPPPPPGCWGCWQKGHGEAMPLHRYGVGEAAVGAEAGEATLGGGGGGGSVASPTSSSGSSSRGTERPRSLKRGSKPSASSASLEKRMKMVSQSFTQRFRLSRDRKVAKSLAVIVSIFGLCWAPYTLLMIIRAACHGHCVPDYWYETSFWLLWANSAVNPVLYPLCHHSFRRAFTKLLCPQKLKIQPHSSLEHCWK

For `O=C1CCCC2c3ccc(OCCCN4CCOCC4)nc3CCN12` (stereo not shown) [Example 20, 3-(3-morpholin-4-ylpropoxy)-5,6,9,10,11,11a-hexahydro-8H-pyrido[2,1-f][1,6]naphthyridin-8-one], the IC50 was in the range of 500 to 5000 nM.

What is called IC50 is the point on the concentration scale where inhibition reaches its midpoint.
